# Measured values from the supplement of paper PMC3974653.
# Counter-ions that a name gives are not always drawn.
# Tested on: MTT (mouse pheochromocytoma)
# Experiment: IC50 of cell viability (ATP content)
# Details: (24 or 48 h)
# Summary of the method: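 Cells of the MTT mouse pheochromocytoma line, 5 µl per well at 200,000 cells/ml, were grown overnight at 37°C, 5% CO2 in white 1536-well plates with DMEM, 5% FBS and 1% horse serum. Pintool transfer then delivered 23 nl of library compound in DMSO, giving 8 final concentrations from 0.5 nM to 46 µM, for an exposure of 24 or 48 hrs. Luminescence from CellTiter-Glo was read after 15 minutes and referenced to positive-control wells (100%) and DMSO wells (0%). IC50 was calculated with a four-parameter logistic fit.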
row,SMILES,IC50 of cell viability
1,CCCc1nn(C)c2c(O)nc(-c3cc([S+](=O)([O-])N4CCN(C)CC4)ccc3OCC)nc12 [Sildenafil citrate],> 46 µM
2,COc1cc([C@H]2Oc3cc([C@H]4Oc5cc(O)cc(O)c5C(=O)[C@@H]4O)ccc3O[C@@H]2CO)ccc1O [Silibinin],> 46 µM
3,CCC(C)(C)C(=O)O[C@@H]1C[C@H](C)\C=C2\C=C/[C@H](C)[C@@H](CC[C@H]3C[C@@H](O)CC(=O)O3)[C@@H]12 [Simvastatin],> 46 µM
4,CN[C@H]1[C@@H](O)[C@@H](OC[C@@]1(C)O)O[C@@H]2[C@H](N)C[C@H](N)[C@H](O[C@@H]3O\C(=C/C[C@H]3N)CN)[C@H]2O [Sisomicin sulfate],> 46 µM
5,N[C@@H]1CN(CC12CC2)C3=C(F)C=C4C(=O)\C(=C/N([C@@H]5C[C@@H]5F)C4=C3Cl)C(O)=O [Sitafloxacin],> 46 µM
6,O.O.[Na+].[Na+].[O]=[Cr](=[O])([O-])[O][Cr](=[O])(=[O])[O-] [Sodium Dichromate Dihydrate],> 46 µM
7,O.O=C([O-])CC([S][Au])C(=O)[O-].[Na+].[Na+] (stereo not given) [Sodium aurothiomalate hydrate],> 46 µM
8,O=c1[n-]c(=O)n(Cl)c(=O)n1Cl [Sodium dichloroisocyanurate],> 46 µM
9,CCCCCCCCCCCCOS(=O)(=O)[O-] [Sodium dodecyl sulfate],> 46 µM
10,O=S(=O)([O-])O.[Na+] [Sodium hydrogen sulfate],> 46 µM
11,[O-]Cl [Sodium hypochlorite],> 46 µM
12,Cc1ccc(S(=O)(=O)[O-])cc1C [Sodium xylenesulfonate],> 46 µM
13,Cc1cc(CC(=O)[O-])n(C)c1C(=O)c1ccc(Cl)cc1 [Sodium zomepirac],> 46 µM
14,CC(C)=CCOc1ccc(/C=C/C(=O)c2ccc(OCC=C(C)C)cc2OCC(=O)O)cc1 [Sofalcone],> 46 µM
15,CN(C)[C@@H]\1[C@H]2C[C@H]3\C(=C(\O)[C@@]2(O)C(=O)\C(=C1O)C(=O)NCN4CCCC4)C(=O)C5=C(C=CC=C5O)[C@]3(C)O [Solvocillin],> 46 µM
16,C/C=C/C=C/C(=O)O [Sorbic acid],> 46 µM
17,O=C1NC(=O)[C@@]2(CCOc3ccc(F)cc32)N1 [Sorbinil],> 46 µM
18,CCCCCCCCCCCCCCCCCC(=O)OC[C@@H](O)[C@H]1OC[C@H](O)[C@H]1O [Sorbitan monostearate],> 46 µM
19,"CCCCCCCC/C=C\CCCCCCCC(=O)OC[C@@H](O)[C@H]1OC[C@H](O)[C@H]1O [Sorbitan, mono-(9Z)-9-octadecenoate]",> 46 µM
20,C1CC[N@]2C[C@@H]3C[C@@H](CN4CCCC[C@H]34)[C@H]2C1 [Sparteine (-)],> 46 µM
21,CN[C@H]1[C@@H](O)[C@@H](NC)[C@@H]2O[C@]3(O)C(=O)C[C@@H](C)O[C@H]3O[C@H]2[C@H]1O [Spectinomycin dihydrochloride],> 46 µM
22,CO[C@H]1[C@@H](O[C@@H]2O[C@@H](C)[C@@H](O[C@H]3C[C@](C)(O)[C@H](O)[C@H](C)O3)[C@@H](N(C)C)[C@H]2O)[C@H](CC=O)C[C@@H](C)[C@@H](O[C@H]2CC[C@H](N(C)C)[C@H](C)O2)/C=C\C=C/C[C@@H](C)OC(=O)C[C@H]1O [Spiramycin],> 46 µM
23,CCOC(=O)[C@H](CCc1ccccc1)NC(C)C(=O)N1CC2(CC1C(=O)O)SCCS2 (stereo not given in full) [Spirapril],> 46 µM
24,CC(=O)SC1C\C2=C\C(=O)CCC2(C)C3CCC4(C)C(CCC45CCC(=O)O5)C13 (stereo not given) [Spironolactone],> 46 µM

row,SMILES,IC50 of cell viability
1,OC(=O)CC/1=N/N(CC2=CC=C(Br)C=C2F)C(=O)C3=CC=CC=C13 [Statil],> 46 µM
2,CCCCCCCCCCCCCCCCCC(=O)O [Stearic acid],> 46 µM
3,CC(C)(C)C(O)C=Cc1ccc2c(c1)OCO2 (stereo not given) [Stiripentol],> 46 µM
4,CN[C@@H]1[C@H](O[C@H]2[C@H](O[C@H]3[C@H](O)[C@@H](O)[C@H](NC(=N)N)[C@@H](O)[C@@H]3NC(=N)N)O[C@@H](C)[C@]2(O)C=O)O[C@@H](CO)[C@H](O)[C@H]1O [Streptomycin sulfate],> 46 µM
5,CN(N=O)C(=O)N[C@H]1[C@H](O)[C@H](O)[C@H](CO)O[C@@H]1O [Streptozotocin],> 46 µM
6,C=Cc1ccccc1 [Styrene],> 46 µM
7,C[N+](C)(C)CCOC(=O)CCC(=O)OCC[N+](C)(C)C.[Cl-].[Cl-] [Succinylcholine chloride],> 46 µM
8,O=C(O)CCC(=O)Nc1ccc([S+](=O)([O-])Nc2nccs2)cc1 [Succinylsulfathiazole],> 46 µM
9,OC[C@@H]1O[C@@](CO)(OC2O[C@H](CO)[C@@H](O)[C@H](O)[C@@H]2O)[C@@H](O)[C@@H]1O (stereo not given in full) [Sucralox],> 46 µM
10,"O=S(=O)([O-])OCC1OC(OC2(COS(=O)(=O)[O-])OC(COS(=O)(=O)[O-])C(OS(=O)(=O)[O-])C2OS(=O)(=O)[O-])C(OS(=O)(=O)[O-])C(OS(=O)(=O)[O-])C1OS(=O)(=O)[O-] (stereo not given) [Sucrose Octasulfate, Sodium Salt]",> 46 µM
11,CN1C(=S)CN=C(c2ccccc2)c2cc(Cl)ccc21 [Sulazepam],> 46 µM
12,CC1(C)C(C(=O)[O-])N2C(=O)CC2[S+]1(=O)[O-] (stereo not given) [Sulbactam],> 46 µM
13,S=C1SCN(Cc2ccccc2)CN1Cc1ccccc1 [Sulbentina],> 46 µM
14,CCOC(=O)c1ccc(NC(=O)CN2CCCCC2)cc1 [Sulcaine],> 46 µM
15,Clc1ccc(CS[C@@H](Cn2ccnc2)c2ccc(Cl)cc2Cl)cc1 [Sulconazole nitrate],> 46 µM
16,Nc1ccc([S+](=O)([O-])Nc2ccccc2)cc1 [Sulfabenz],> 46 µM
17,Nc1ccc([S+](=O)([O-])NC(=O)c2ccccc2)cc1 [Sulfabenzamide],> 46 µM
18,CC(=O)N[S+](=O)([O-])c1ccc(N)cc1 [Sulfacetamide],> 46 µM
19,Nc1ccc([S+](=O)([O-])Nc2ccc(Cl)nn2)cc1 [Sulfachloropyridazine],> 46 µM
20,Nc1ccc([S+](=O)([O-])Nc2ncccn2)cc1 [Sulfadiazine],> 46 µM
21,COc1cc(N[S+](=O)([O-])c2ccc(N)cc2)nc(OC)n1 [Sulfadimethoxine],> 46 µM
22,COc1ncnc(N[S+](=O)([O-])c2ccc(N)cc2)c1OC [Sulfadoxine],> 46 µM
23,CCc1nnc(N[S+](=O)([O-])c2ccc(N)cc2)s1 [Sulfaethidole],> 46 µM
24,CCOc1ccc(N[S+](=O)([O-])c2ccc(N)cc2)nn1 [Sulfaethoxypyridazine],> 46 µM

row,SMILES,IC50 of cell viability
1,NC(N)=N[S+](=O)([O-])c1ccc(N)cc1 [Sulfaguanidine],> 46 µM
2,COc1nccnc1N[S+](=O)([O-])c1ccc(N)cc1 [Sulfalene],> 46 µM
3,Cc1ccnc(N[S+](=O)([O-])c2ccc(N)cc2)n1 [Sulfamerazine],> 46 µM
4,COc1cnc(N[S+](=O)([O-])c2ccc(N)cc2)nc1 [Sulfameter],> 46 µM
5,Cc1cc(C)nc(N[S+](=O)([O-])c2ccc(N)cc2)n1 [Sulfamethazine],> 46 µM
6,Cc1nnc(N[S+](=O)([O-])c2ccc(N)cc2)s1 [Sulfamethizole],> 46 µM
7,Cc1cc(N[S+](=O)([O-])c2ccc(N)cc2)no1 [Sulfamethoxazole],> 46 µM
8,COc1ccc(N[S+](=O)([O-])c2ccc(N)cc2)nn1 [Sulfamethoxypyridazine],> 46 µM
9,COc1cc(N[S+](=O)([O-])c2ccc(N)cc2)ncn1 [Sulfamonomethoxine],> 46 µM
10,Nc1ccc([S+](N)(=O)[O-])cc1 [Sulfanilamide],> 46 µM
11,Nc1ccc([S+](=O)([O-])Nc2ccnn2-c2ccccc2)cc1 [Sulfaphenazole],> 46 µM
12,Nc1ccc([S+](=O)([O-])Nc2ccccn2)cc1 [Sulfapyridine],> 46 µM
13,Nc1ccc([S+](=O)([O-])Nc2nccs2)cc1 [Sulfathiazole],> 46 µM
14,O=C1C(CC[S+]([O-])c2ccccc2)C(=O)N(c2ccccc2)N1c1ccccc1 (stereo not given) [Sulfinpyrazone],> 46 µM
15,Cc1cc(NS(=O)(=O)c2ccc(N)cc2)nc(C)n1 [Sulfisomidine],> 46 µM
16,Cc1noc(N[S+](=O)([O-])c2ccc(N)cc2)c1C [Sulfisoxazole diolamine],> 46 µM
17,Cc1noc(N[S+](=O)([O-])c2ccc(N)cc2)c1C [Sulfisoxazole],> 46 µM
18,CSc1ccc(/C=C2/C(C)=C(CC(=O)O)c3cc(F)ccc32)cc1 [Sulindac sulfide],> 46 µM
19,CC1=C(CC(=O)O)c2cc(F)ccc2/C1=C\c1ccc([S+](C)(=O)[O-])cc1 [Sulindac sulfone],> 46 µM
20,CC1=C(CC(=O)O)c2cc(F)ccc2/C1=C\c1ccc([S+](C)[O-])cc1 (stereo not given) [Sulindac],> 46 µM
21,COc1cc(O)c(C(=O)c2ccccc2)cc1[S+](=O)([O-])O [Sulisobenzone],> 46 µM
22,CS(=O)(=O)NC(=O)CCC/C=C\C[C@H]1C(=O)C[C@@H](O)[C@@H]1/C=C/[C@@H](O)COc1ccccc1 [Sulprostone],> 46 µM
